These results are taken from US20250223268A1, “4-Methylsulfonylbenzamide Compound, Preparation Method, Herbicidal Composition And Use” (Jiangsu Flag Chemical Industry Co., Ltd., priority 2022, published 2025).

Holding throughout (assay): Greenhouse herbicidal activity assay, post-emergence
What all share (assay type): in vivo

One experiment relates to Cyperus iria. As to conditions: Post-emergence test, rate 150 g a.i./hm^2, grade by fresh weight inhibition rate; for pest or weed control at 150 g/ha: Cyperus iria, read-out: Control efficacy grade, Cyperus iria. The source says: (§1) Post-emergence: Seeds of gramineous weeds (Echinochloa crusgalli, Echinochloa crusgalli var. zelayensis, Echinochloa phyllopogon, Eleusine indica, Digitaria sanguinalis, Leptochloa chinensis, Setaria viridis, Alopecurus japonicus Steud, Beckmannia syzigachne, Polypogon fugax, Alopecurus aequalis, Lolium multiflorum, Poa annua, Aegilops tataschii, Avena fatua, Alopecurus myosuroides, Bromus japonicus), broadleaf weeds (Eclipta prostrata, Amaranthus retroflexus, Rorippa indica, Myosoton aquaticum, Veronica didyma, Galium aparine, Solanum nigrum, Xanthium sibiricum, Conyza canadensis, Sesbania cannabina, Sagittaria trifolia), and Cyperus iria (Cyperus iria, Scirpus juncoides, Cyperus difformis, etc.) were sown in plastic pots (7 cm diameter) with nutrient soil and bottom holes. Crop seeds (including Oryza sativa subsp. indica, Oryza sativa subsp. japonica, Oryza sativa L. var. Glutinosa matsum, Triticum aestivum, Zea mays, Sorghum bicolor, Setaria italica, Glycine max, Gossypium hirsutum, Brassica napus, Arachis hypogaea) were sown in plastic pots (10 cm diameter) with nutrient soil and bottom holes. After sowing, the pots were placed in the growth chamber until the plants reached the 3-6 leaf stage for foliar spraying. Post-treatment, the materials were air-dried naturally and returned to the growth chamber. Results were assessed 14-21 days later.
(§2) • A: Fresh weight inhibition rate≥80% to 100%; • B: Fresh weight inhibition rate[…] to <80%; • C: Fresh weight inhibition rate≥40% to <60%; • D: Fresh weight inhibition rate≥20% to <40%; • E: Fresh weight inhibition rate<20%; • NT: Not tested.

Another experiment deals with Eclipta prostrata. The following applies: Post-emergence test, rate 150 g a.i./hm^2, grade by fresh weight inhibition rate; for pest or weed control at 150 g/ha: Eclipta prostrata, read-out: Control efficacy grade, Eclipta prostrata.
From the text: as §1, §2

The subject of a further experiment is Leptochloa chinensis. The following applies: Post-emergence test, rate 150 g a.i./hm^2; grade by fresh weight inhibition rate.
From the text: as §1, §2

The next experiment has as its system Echinochloa crusgalli. As to conditions: Post-emergence test, rate 150 g a.i./hm^2; grade by fresh weight inhibition rate.
From the text: as §1, §2

`CCC(C)[S+]([O-])c1c(S(C)(=O)=O)ccc(C(=O)Nc2nonc2C)c1Cl` (mixture of isomers) [Compound 4-19]: the “Control efficacy grade, Cyperus iria” value in the experiment on Cyperus iria is “A (Fresh weight inhibition rate≥80% to 100%)”. Moreover, the “Control efficacy grade, Eclipta prostrata” value in the experiment on Eclipta prostrata is reported as “A (Fresh weight inhibition rate≥80% to 100%)”. The “Control efficacy grade, Leptochloa chinensis” value with Leptochloa chinensis is reported as “A (Fresh weight inhibition rate≥80% to 100%)”.
Take `C=CC[S+]([O-])c1c(S(C)(=O)=O)ccc(C(=O)Nc2nnc(C(C)C)o2)c1Cl` (racemic) [Compound 3-571]: the “Control efficacy grade, Cyperus iria” value in the experiment with Cyperus iria was “A (Fresh weight inhibition rate≥80% to 100%)”. Further, the “Control efficacy grade, Eclipta prostrata” value in the experiment on Eclipta prostrata is listed as “A (Fresh weight inhibition rate≥80% to 100%)”.
Turning to `CCc1nnc(N(C)C(=O)c2ccc(S(C)(=O)=O)c([S+]([O-])C3CC3)c2Cl)o1` (racemic) [Compound 3-813], the “Control efficacy grade, Cyperus iria” value with Cyperus iria is listed as “B (Fresh weight inhibition rate≥260% to <80%)”. The “Control efficacy grade, Eclipta prostrata” value in the experiment with Eclipta prostrata is recorded as “A (Fresh weight inhibition rate≥80% to 100%)”. Moreover, in the experiment with Leptochloa chinensis, the “Control efficacy grade, Leptochloa chinensis” value was “B (Fresh weight inhibition rate≥260% to <80%)”.
For the compound `Cc1nnc(NC(=O)c2ccc(S(C)(=O)=O)c(SC3CCCCC3)c2Cl)o1` [Compound 3-92], the “Control efficacy grade, Cyperus iria” value in the experiment on Cyperus iria is given as “A (Fresh weight inhibition rate≥80% to 100%)”.
As for `Cc1nnc(N(C)C(=O)c2ccc(S(C)(=O)=O)c([S+]([O-])CCCl)c2Cl)o1` (racemic) [Compound 3-835], the “Control efficacy grade, Echinochloa crusgalli” value in the experiment with Echinochloa crusgalli is recorded as “A (Fresh weight inhibition rate≥80% to 100%)”.
Consider `CCC(C)Sc1c(S(C)(=O)=O)ccc(C(=O)Nc2nonc2C)c1Cl` (racemic) [Compound 4-16], for which the “Control efficacy grade, Cyperus iria” value with Cyperus iria is “A (Fresh weight inhibition rate≥80% to 100%)”.
On to `CCCS(=O)(=O)c1c(S(C)(=O)=O)ccc(C(=O)N(C)c2nnnn2C)c1Cl` [Compound 1-101], for which the “Control efficacy grade, Eclipta prostrata” value in the experiment on Eclipta prostrata was “A (Fresh weight inhibition rate≥80% to 100%)”. Also, in the experiment with Leptochloa chinensis, the “Control efficacy grade, Leptochloa chinensis” value is reported as “B (Fresh weight inhibition rate≥260% to <80%)”.
Take `Cc1nnc(NC(=O)c2ccc(S(C)(=O)=O)c([S+]([O-])CCC#N)c2Cl)o1` (racemic) [Compound 3-198]: the “Control efficacy grade, Cyperus iria” value with Cyperus iria was “A (Fresh weight inhibition rate≥80% to 100%)”. In addition, the “Control efficacy grade, Eclipta prostrata” value in the experiment with Eclipta prostrata was “A (Fresh weight inhibition rate≥80% to 100%)”. Besides, the “Control efficacy grade, Leptochloa chinensis” value in the experiment with Leptochloa chinensis was “A (Fresh weight inhibition rate≥80% to 100%)”.
In the case of `CCC(C)Sc1c(S(C)(=O)=O)ccc(C(=O)Nc2ncnn2C)c1Cl` (racemic) [Compound 2-16], the “Control efficacy grade, Cyperus iria” value in the experiment with Cyperus iria is given as “A (Fresh weight inhibition rate≥80% to 100%)”. For the same compound, in the experiment with Eclipta prostrata, the “Control efficacy grade, Eclipta prostrata” value is listed as “A (Fresh weight inhibition rate≥80% to 100%)”. For the same compound, the “Control efficacy grade, Leptochloa chinensis” value in the experiment with Leptochloa chinensis is “A (Fresh weight inhibition rate≥80% to 100%)”.
For the compound `CCC(C)[S+]([O-])c1c(S(C)(=O)=O)ccc(C(=O)Nc2nnc(C(C)C)o2)c1Cl` (mixture of isomers) [Compound 3-517], in the experiment with Cyperus iria, the “Control efficacy grade, Cyperus iria” value is “B (Fresh weight inhibition rate≥260% to <80%)”. In the experiment on Eclipta prostrata, the “Control efficacy grade, Eclipta prostrata” value is on record as “A (Fresh weight inhibition rate≥80% to 100%)”. The “Control efficacy grade, Leptochloa chinensis” value with Leptochloa chinensis is given as “A (Fresh weight inhibition rate≥80% to 100%)”.
Turning to `Cn1ncnc1NC(=O)c1ccc(S(C)(=O)=O)c(SC2CCCC2)c1Cl` [Compound 2-42], in the experiment on Cyperus iria, the “Control efficacy grade, Cyperus iria” value is “A (Fresh weight inhibition rate≥80% to 100%)”. In addition, the “Control efficacy grade, Eclipta prostrata” value in the experiment with Eclipta prostrata was “A (Fresh weight inhibition rate≥80% to 100%)”. In the experiment on Leptochloa chinensis, the “Control efficacy grade, Leptochloa chinensis” value is listed as “A (Fresh weight inhibition rate≥80% to 100%)”.
Regarding `CCCCS(=O)(=O)c1c(S(C)(=O)=O)ccc(C(=O)Nc2nnco2)c1Cl` [Compound 3-281], the “Control efficacy grade, Cyperus iria” value in the experiment on Cyperus iria is “A (Fresh weight inhibition rate≥80% to 100%)”. Moreover, in the experiment on Eclipta prostrata, the “Control efficacy grade, Eclipta prostrata” value is given as “A (Fresh weight inhibition rate≥80% to 100%)”. Besides, in the experiment with Leptochloa chinensis, the “Control efficacy grade, Leptochloa chinensis” value is “A (Fresh weight inhibition rate≥80% to 100%)”.
As to `Cc1nonc1NC(=O)c1ccc(S(C)(=O)=O)c(SCC2CC2)c1Cl` [Compound 4-32, 2-chloro-3-((cyclopropylmethyl)thio)-N-(4-meth 1-1,2,5-oxadiazol-3-yl)-4-(methylsulfonyl)benzamide], the pest or weed control at 150 g/ha in the experiment on Cyperus iria was 80 to 100%.
For the compound `CCCCS(=O)(=O)c1c(S(C)(=O)=O)ccc(C(=O)Nc2nnc(CC)o2)c1Cl` [Compound 3-397], the “Control efficacy grade, Cyperus iria” value with Cyperus iria was “A (Fresh weight inhibition rate≥80% to 100%)”. In the experiment on Eclipta prostrata, the “Control efficacy grade, Eclipta prostrata” value is reported as “A (Fresh weight inhibition rate≥80% to 100%)”.
Consider `Cc1nnc(NC(=O)c2ccc(S(C)(=O)=O)c(SCc3ccccc3)c2Cl)o1` [Compound 3-67], for which the “Control efficacy grade, Cyperus iria” value in the experiment with Cyperus iria is on record as “A (Fresh weight inhibition rate≥80% to 100%)”.
For `Cc1nonc1NC(=O)c1ccc(S(C)(=O)=O)c(SC(C)C)c1Cl` [Compound 4-6], the “Control efficacy grade, Leptochloa chinensis” value in the experiment with Leptochloa chinensis is listed as “A (Fresh weight inhibition rate≥80% to 100%)”.
For the compound `CCC[S+]([O-])c1c(S(C)(=O)=O)ccc(C(=O)N(C)c2nonc2C)c1Cl` (stereo not drawn) [Compound 4-272, 2-chloro-N-methyl-N-(4-methyl-1,2,5-oxadiazol-3-yl)-4-(methylsulfonyl)-3-(propylsulfinyl)benzamide], the pest or weed control at 150 g/ha with Cyperus iria and with Eclipta prostrata was 80 to 100% throughout.
As for `CCc1nnc(NC(=O)c2ccc(S(C)(=O)=O)c(S(=O)(=O)CCCl)c2Cl)o1` [Compound 3-498], in the experiment with Leptochloa chinensis, the “Control efficacy grade, Leptochloa chinensis” value was “A (Fresh weight inhibition rate≥80% to 100%)”.
Take `Cc1nonc1NC(=O)c1ccc(S(C)(=O)=O)c(S(=O)(=O)CC2CC2)c1Cl` [Compound 4-36, 2-chloro-3-((cyclopropylmethyl)sulfonyl)-N-(4-methyl-1,2,5-oxadiazol-3-yl)-4-(methylsulfonyl)benzamide]: the pest or weed control at 150 g/ha in the experiment with Cyperus iria lay within 80 to 100%.
Take `CCc1nnc(NC(=O)c2ccc(S(C)(=O)=O)c(S(=O)(=O)CC(C)C)c2Cl)o1` [Compound 3-413]: in the experiment with Cyperus iria, the “Control efficacy grade, Cyperus iria” value is “A (Fresh weight inhibition rate≥80% to 100%)”. In the experiment on Eclipta prostrata, the “Control efficacy grade, Eclipta prostrata” value is “A (Fresh weight inhibition rate≥80% to 100%)”. Further, the “Control efficacy grade, Leptochloa chinensis” value in the experiment on Leptochloa chinensis is “A (Fresh weight inhibition rate≥80% to 100%)”.
Regarding `CS(=O)(=O)c1ccc(C(=O)Nc2nnco2)c(Cl)c1S(=O)(=O)CCCl` [Compound 3-382], the “Control efficacy grade, Leptochloa chinensis” value in the experiment with Leptochloa chinensis was “A (Fresh weight inhibition rate≥80% to 100%)”.
Same read-out and setting: with `C#CC[S+]([O-])c1c(S(C)(=O)=O)ccc(C(=O)Nc2nnc(C)o2)c1Cl` (racemic) [Compound 3-148] the entry was “A (Fresh weight inhibition rate≥80% to 100%)”.
As to `CCCCSc1c(S(C)(=O)=O)ccc(C(=O)Nc2nnc(CC)o2)c1Cl` [Compound 3-393], the “Control efficacy grade, Cyperus iria” value in the experiment on Cyperus iria is recorded as “A (Fresh weight inhibition rate≥80% to 100%)”. Further, in the experiment on Leptochloa chinensis, the “Control efficacy grade, Leptochloa chinensis” value is given as “B (Fresh weight inhibition rate≥260% to <80%)”.
As for `CC(C)CS(=O)(=O)c1c(S(C)(=O)=O)ccc(C(=O)Nc2nnco2)c1Cl` [Compound 3-297], the “Control efficacy grade, Cyperus iria” value in the experiment with Cyperus iria is reported as “A (Fresh weight inhibition rate≥80% to 100%)”. Besides, the “Control efficacy grade, Eclipta prostrata” value with Eclipta prostrata is “A (Fresh weight inhibition rate≥80% to 100%)”. Also, in the experiment with Leptochloa chinensis, the “Control efficacy grade, Leptochloa chinensis” value was “B (Fresh weight inhibition rate≥260% to <80%)”.
As to `CCCS(=O)(=O)c1c(S(C)(=O)=O)ccc(C(=O)Nc2nonc2C)c1Cl` [Compound 4-5, 2-chloro-N-(4-methyl-1,2,5-oxadiazol-3-yl)-4-(methylsulfonyl)-3-(propylsulfonyl)benzamide], the pest or weed control at 150 g/ha with Cyperus iria and in the experiment with Eclipta prostrata was 80 to 100% throughout.
In the case of `CCCSc1c(S(C)(=O)=O)ccc(C(=O)Nc2nnc(C(C)C)o2)c1Cl` [Compound 3-499, 2-chloro-N-(5-isopropyl-1,3,4-oxadiazol-2-yl)-4-(methylsulfonyl)-3-(propylthio)benzamide], the pest or weed control at 150 g/ha with Cyperus iria is 80 to 100%.
`Cc1nnc(NC(=O)c2ccc(S(C)(=O)=O)c([S+]([O-])CC(F)(F)C(F)(F)F)c2Cl)o1` (racemic) [Compound 3-173]: the “Control efficacy grade, Leptochloa chinensis” value in the experiment on Leptochloa chinensis was “A (Fresh weight inhibition rate≥80% to 100%)”.
Turning to `CC(C)c1nnc(NC(=O)c2ccc(S(C)(=O)=O)c([S+]([O-])C(C)C)c2Cl)o1` (racemic) [Compound 3-505], in the experiment with Cyperus iria, the “Control efficacy grade, Cyperus iria” value was “A (Fresh weight inhibition rate≥80% to 100%)”. In addition, in the experiment with Eclipta prostrata, the “Control efficacy grade, Eclipta prostrata” value is on record as “A (Fresh weight inhibition rate≥80% to 100%)”. The “Control efficacy grade, Leptochloa chinensis” value in the experiment with Leptochloa chinensis is “A (Fresh weight inhibition rate≥80% to 100%)”.
With `C=CCSc1c(S(C)(=O)=O)ccc(C(=O)Nc2nnc(C(C)C)o2)c1Cl` [Compound 3-570], in the experiment with Cyperus iria, the “Control efficacy grade, Cyperus iria” value is on record as “A (Fresh weight inhibition rate≥80% to 100%)”. In the experiment with Eclipta prostrata, the “Control efficacy grade, Eclipta prostrata” value is given as “A (Fresh weight inhibition rate≥80% to 100%)”. Further, in the experiment with Leptochloa chinensis, the “Control efficacy grade, Leptochloa chinensis” value is recorded as “B (Fresh weight inhibition rate≥260% to <80%)”.
